# Results reported in patent US4477443A, “Tylosin derivatives, their preparation and pharmaceutical compositions containing them” (Zaidan Hojin Biselbutsu Kagaku Kenkyu Kai (Microbial …, priority 1981, dated 1984).
# Like-named read-outs stand apart in the source and are kept apart here.
# What was measured:
# Type in all cases: cell-based
# B. subtilis ATCC 6633 = test: antimicrobial activity (MIC), Table II; conditions: Bacillus subtilis, ATCC6633; B. subtilis ATCC 6633; read-out: MIC
# B. cereus = test: antimicrobial activity (MIC), Table II; conditions: Bacillus cereus; B. cereus; read-out: MIC
# Staph. aureus ATCC 6538P = test: antimicrobial activity (MIC), Table II; conditions: Staphylococcus aureus, ATCC6538P
# Staph. aureus KC-11 = test: antimicrobial activity (MIC), Table II; conditions: Staphylococcus aureus, KC11; Staph. aureus KC-11; read-out: MIC
# Staph. aureus 226 = test: antimicrobial activity (MIC), Table II; conditions: Staphylococcus aureus
# [1] = test system: Staph. epidermidis IID 866; test: antimicrobial activity (MIC), Table II; conditions: Staphylococcus epidermidis, IID866
# Staph. aureus 193 = test: antimicrobial activity (MIC), Table I; conditions: Staphylococcus aureus; Staph. aureus 193; read-out: MIC
# Staph. aureus 209 P = test: antimicrobial activity (MIC), Table I; conditions: Staphylococcus aureus; Staph. aureus 209 P; read-out: MIC
# Staph. aureus MS 9861 = test: antimicrobial activity (MIC), Table I; conditions: Staphylococcus aureus, MS9861; Staph. aureus MS 9861; read-out: MIC
# Sarcina lutea PCI 1001 = test: antimicrobial activity (MIC), Table I; conditions: Micrococcus luteus, PCI1001; Sarcina lutea PCI 1001; read-out: MIC
# B. subtilis NRRL B-558 = test: antimicrobial activity (MIC), Table I; conditions: Bacillus subtilis, NRRLB558; B. subtilis NRRL B-558; read-out: MIC
# Coryn. bovis 1810 = test: antimicrobial activity (MIC), Table I; conditions: Corynebacterium bovis; Coryn. bovis 1810; read-out: MIC
# E. coli NIHJ = test: antimicrobial activity (MIC), Table I; conditions: Escherichia coli; E. coli NIHJ; read-out: MIC
# E. coli K-12 = test: antimicrobial activity (MIC), Table I; conditions: Escherichia coli, K12; E. coli K-12; read-out: MIC
# E. coli K-12 R-5 = test: antimicrobial activity (MIC), Table I; conditions: Escherichia coli, K12R5; E. coli K-12 R-5; read-out: MIC
# E. coli K-12 ML 1410 = test: antimicrobial activity (MIC), Table I; conditions: Escherichia coli, K12ML1410
# Kleb. pneumoniae PCI 602 = test: antimicrobial activity (MIC), Table I; conditions: Klebsiella pneumoniae, PCI602; Kleb. pneumoniae PCI 602; read-out: MIC
# [2] = test system: Shigella dysenteriae JS 11910; test: antimicrobial activity (MIC), Table I; conditions: JS11910
# Sal. enteritidis 1891 = test: antimicrobial activity (MIC), Table I; conditions: Salmonella enterica; Sal. enteritidis 1891; read-out: MIC
# Pro. vulgaris OX-19 = test: antimicrobial activity (MIC), Table I; conditions: Proteus vulgaris, OX19; Pro. vulgaris OX-19; read-out: MIC
# [3] = test system: Staph. epidermidis IID 886; test: antimicrobial activity (MIC), Table II; conditions: Staphylococcus epidermidis, IID886
# [4] = Staph. aureus ATCC 6538P, read-out: MIC
# [5] = Staph. aureus 226, read-out: MIC
# [6] = E. coli K-12 ML 1410, read-out: MIC
SMILES,MIC (B. subtilis ATCC 6633) [µg/mL],MIC (B. cereus) [µg/mL],MIC (Staph. aureus ATCC 6538P; [4]) [µg/mL],MIC (Staph. aureus KC-11) [µg/mL],MIC (Staph. aureus 226; [5]) [µg/mL],MIC [1] [µg/mL],other results
"CCC1OC(=O)CC(O)C(C)C(OC2OC(C)CC(N(C)C)C2O)C(CC=O)CC(C)C(=O)C=CC(C)=CC1CNC(C)(C)C (centres unmarked) [Example 22, 23,4'-dideoxy-23-(t-butylamino)mycaminosyl tylonolide]",0.78,0.39,0.78,0.78,0.78,0.78,
"CCC1OC(=O)CC(O)C(C)C(OC2OC(C)CC(N(C)C)C2O)C(CC=O)CC(C)C(=O)C=CC(C)=CC1COC(=O)CN(C)C (centres unmarked) [Example 51, 23-O-dimethylaminoacetyl-4'-deoxymycaminosyltylonolide]",0.78,0.39,0.78,0.78,0.78,0.39,
"CCC1OC(=O)CC(O)C(C)C(OC2OC(C)CC(N(C)C)C2O)C(CC=O)CC(C)C(=O)C=CC(C)=CC1CN(CC)C(C)=O (centres unmarked) [Example 47, 23-N-acetylethylamino-23,4'-dideoxymycaminosyl tylonolide]",0.78,0.39,0.78,0.78,1.56,0.78,
"CCC1OC(=O)CC(O)C(C)C(OC2OC(C)CC(N(C)C)C2O)C(CC=O)CC(C)C(=O)C=CC(C)=CC1CN1CCCC1 (centres unmarked) [Example 16, 23,4'-dideoxy-23-pyrrolidinomycaminosyl tylonolide]",,,,,,,MIC (Staph. aureus 193): 1.56 µg/mL; MIC (Staph. aureus 209 P): 0.39 µg/mL; MIC (Staph. aureus MS 9861): 3.12 µg/mL; MIC (Sarcina lutea PCI 1001): < 0.2 µg/mL; MIC (B. subtilis NRRL B-558): 0.78 µg/mL; MIC (Coryn. bovis 1810): 0.39 µg/mL; MIC (E. coli NIHJ): 1.56 µg/mL; MIC (E. coli K-12): 3.12 µg/mL; MIC (E. coli K-12 R-5): 1.56 µg/mL; MIC (E. coli K-12 ML 1410): 3.12 µg/mL; MIC (Kleb. pneumoniae PCI 602): 0.78 µg/mL; MIC [2]: < 0.2 µg/mL; MIC (Sal. enteritidis 1891): 0.39 µg/mL; MIC (Pro. vulgaris OX-19): 1.56 µg/mL
"CCC1OC(=O)CC(O)C(C)C(OC2OC(C)C(O)C(N(C)C)C2O)C(CC=O)CC(C)C(=O)C=CC(C)=CC1CN(C)C (centres unmarked) [Example 4, 23-deoxy-23-dimethylaminomycaminosyl tylonolide]",,,,,,,MIC (Staph. aureus 193): 0.39 µg/mL; MIC (Staph. aureus 209 P): 0.2 µg/mL; MIC (Staph. aureus MS 9861): 1.56 µg/mL; MIC (Sarcina lutea PCI 1001): < 0.2 µg/mL; MIC (B. subtilis NRRL B-558): 0.78 µg/mL; MIC (Coryn. bovis 1810): 0.78 µg/mL; MIC (E. coli NIHJ): 0.78 µg/mL; MIC (E. coli K-12): 1.56 µg/mL; MIC (E. coli K-12 R-5): 1.56 µg/mL; MIC (E. coli K-12 ML 1410; [6]): 1.56 µg/mL; MIC (Kleb. pneumoniae PCI 602): 0.78 µg/mL; MIC [2]: 0.39 µg/mL; MIC (Sal. enteritidis 1891): 1.56 µg/mL; MIC (Pro. vulgaris OX-19): 1.56 µg/mL
"CCC1OC(=O)CC(O)C(C)C(OC2OC(C)CC(N(C)C)C2O)C(CC=O)CC(C)C(=O)C=CC(C)=CC1CN1CCCCC1 (centres unmarked) [Example 17, 23,4'-dideoxy-23-piperidinomycaminosyl tylonolide]",,,,,,,MIC (Staph. aureus 193): 0.78 µg/mL; MIC (Staph. aureus 209 P): 0.39 µg/mL; MIC (Staph. aureus MS 9861): 1.56 µg/mL; MIC (Sarcina lutea PCI 1001): < 0.2 µg/mL; MIC (B. subtilis NRRL B-558): 0.39 µg/mL; MIC (Coryn. bovis 1810): < 0.2 µg/mL; MIC (E. coli NIHJ): 0.78 µg/mL; MIC (E. coli K-12): 3.12 µg/mL; MIC (E. coli K-12 R-5): 1.56 µg/mL; MIC (E. coli K-12 ML 1410; [6]): 0.78 µg/mL; MIC (Kleb. pneumoniae PCI 602): 1.56 µg/mL; MIC [2]: < 0.2 µg/mL; MIC (Sal. enteritidis 1891): 0.39 µg/mL; MIC (Pro. vulgaris OX-19): 0.78 µg/mL
"CCC1OC(=O)CC(O)C(C)C(OC2OC(C)C(O)C(N(C)C)C2O)C(CC=O)CC(C)C(=O)C=CC(C)=CC1CN(CC)C(=O)c1ccco1 (centres unmarked) [Example 43, 23-deoxy-23-N-(2-furoyl)ethylaminomycaminosyl tylonolide]",0.78,0.39,0.78,0.78,0.78,0.78,
"CCC(=O)N(CC)CC1C=C(C)C=CC(=O)C(C)CC(CC=O)C(OC2OC(C)C(O)C(N(C)C)C2O)C(C)C(O)CC(=O)OC1CC (centres unmarked) [Example 42, 23-deoxy-23-N-ethylpropionylaminomycaminosyl tylonolide]",0.78,0.39,0.78,1.56,0.78,0.78,
"CCC1OC(=O)CC(O)C(C)C(OC2OC(C)CC(N(C)C)C2O)C(CC=O)CC(C)C(=O)C=CC(C)=CC1CN(CC)C(=O)c1cccnc1 (centres unmarked) [Example 46, 23,4'-dideoxy-23-N-nicotinoylethylaminomycaminosyl tylonolide]",1.56,0.39,1.56,1.56,1.56,0.78,
"CCC1OC(=O)CC(O)C(C)C(OC2OC(C)C(O)C(N(C)C)C2O)C(CC=O)CC(C)C(=O)C=CC(C)=CC1CN1CCCCCC1 (centres unmarked) [Example 24, 23-deoxy-23-hexamethyleneiminomycaminosyl tylonolide]",0.78,0.39,,0.78,,0.39,MIC (Staph. aureus ATCC 6538P): 0.39 µg/mL; MIC (Staph. aureus 226; 226): ≤ 0.2 µg/mL
"CCC1OC(=O)CC(O)C(C)C(OC2OC(C)C(O)C(N(C)C)C2O)C(CC=O)CC(C)C(=O)C=CC(C)=CC1CN1CCCCC1C (centres unmarked) [Example 87, 23-deoxy-23-(2-methylpiperidino)mycaminosyl tylonolide]",0.78,,0.78,0.78,0.78,,MIC [3]: 0.78 µg/mL
"CCC1OC(=O)CC(O)C(C)C(OC2OC(C)CC(N(C)C)C2O)C(CC=O)CC(C)C(=O)C=CC(C)=CC1COC(=O)CN1CCCC1 (centres unmarked) [Example 52, 23-O-pyrrolidinoacetyl-4'-deoxymycaminosyl tylonolide]",1.56,1.56,0.78,0.78,0.78,0.78,
"CCC1OC(=O)CC(O)C(C)C(OC2OC(C)CC(N(C)C)C2O)C(CC=O)CC(C)C(=O)C=CC(C)=CC1CNC(C)C (centres unmarked) [Example 21, 23,4'-dideoxy-23-isopropylaminomycaminosyl tylonolide]",0.78,0.39,0.78,0.78,0.78,0.78,
"CCC1OC(=O)CC(O)C(C)C(OC2OC(C)CC(N(C)C)C2O)C(CC=O)CC(C)C(=O)C=CC(C)=CC1CN(CC)C(=O)c1ccco1 (centres unmarked) [Example 45, 23,4'-dideoxy-23-N-(2-furoyl)ethylaminomycaminosyl tylonolide]",0.39,0.39,0.78,0.78,0.78,0.39,
"CCC1OC(=O)CC(O)C(C)C(OC2OC(C)CC(N(C)C)C2O)C(CC=O)CC(C)C(=O)C=CC(C)=CC1CNCC(C)(C)C (centres unmarked) [Example 23, 23,4'-dideoxy-23-neopentylaminocaminosyl tylonolide]",1.56,0.78,0.78,0.78,0.78,0.78,
